Among the test systems are CAKI-1 renal; OVCAR-5 ovarian; MDA-MB-231 breast; SF-539 CNS; 786-0 renal; CCRF-CEM leukemia; MDA-MB-435; NCI-H460 lung; SR leukemia; RXF 393 renal.
Common to all, as to assay: inhibition of tumour cell growth, NCI panel, 48 h

The values below come from PubChem BioAssay (NCI).

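Grown in 96-well plates, cells were treated for 48 hours with each compound at five concentrations. Insufficient inhibition: endpoint recorded as highest concentration tested. At the GI50, growth is halved. The concentration for full growth arrest is given as TGI.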

On to `CNC(=O)Nc1nc2ccc([N+](=O)[O-])cc2[nH]1`, for which the TGI with CAKI-1 renal, with OVCAR-5 ovarian, with MDA-MB-231 breast, in the assay on SF-539 CNS, in the assay on 786-0 renal and in the assay on CCRF-CEM leukemia was greater than 100 µM in each case. Also, the TGI in the assay on MDA-MB-435, in the assay on NCI-H460 lung, with SR leukemia and in the assay with RXF 393 renal was greater than 100 µM throughout.
As to `N#Cc1ccc(OCc2nc(N)nc(N)c2-c2ccc(Cl)c(Cl)c2)cc1`, the GI50 was 3.09 µM with CAKI-1 renal; 2.38 µM with OVCAR-5 ovarian; 4.4 µM in the assay on MDA-MB-231 breast; 0.802 µM in the assay with SF-539 CNS; 1.48 µM in the assay with 786-0 renal; 2.67 µM in the assay with CCRF-CEM leukemia. For the same compound, the GI50 is 0.629 µM in the assay on MDA-MB-435, 0.377 µM in the assay with NCI-H460 lung, 4.03 µM in the assay on SR leukemia and 0.597 µM in the assay with RXF 393 renal. Also, the TGI with CAKI-1 renal is greater than 100 µM; in the assay with OVCAR-5 ovarian it was greater than 100 µM; with MDA-MB-231 breast it was greater than 100 µM; in the assay with SF-539 CNS, 37.5 µM; with 786-0 renal, greater than 100 µM; in the assay with CCRF-CEM leukemia, greater than 100 µM. Also, the TGI in the assay on MDA-MB-435 was greater than 100 µM; in the assay with NCI-H460 lung it was 14.1 µM; in the assay with SR leukemia, 66.2 µM; in the assay with RXF 393 renal it was 30 µM.
On to `CC1(C)C2CCC13C(=O)C1OC3(C2)C2C(=O)c3cc4ccccc4cc3C(=O)C12` (stereo not given), for which the GI50 with CAKI-1 renal is 1.29 µM; in the assay with OVCAR-5 ovarian, 18.4 µM; in the assay with MDA-MB-231 breast it was 22.1 µM; in the assay on SF-539 CNS, 40.1 µM; in the assay on 786-0 renal, 6 µM; with CCRF-CEM leukemia, 3.42 µM. The GI50 with MDA-MB-435 is 8.58 µM; in the assay on NCI-H460 lung, 5.48 µM; in the assay on SR leukemia, 1.83 µM; in the assay with RXF 393 renal it was 8.4 µM. Also, the TGI in the assay with CAKI-1 renal was 5.33 µM; with OVCAR-5 ovarian it was greater than 100 µM; in the assay on MDA-MB-231 breast, 49.4 µM; with SF-539 CNS, 72 µM; with 786-0 renal, 36.6 µM; in the assay on CCRF-CEM leukemia it was 25.7 µM. Moreover, the TGI was greater than 100 µM with MDA-MB-435, greater than 100 µM in the assay on NCI-H460 lung, 7.04 µM in the assay with SR leukemia and 46.2 µM with RXF 393 renal.
`C=CCN=c1sc2c(n1NC(=O)c1cc3ccc1CCc1ccc(cc1)CC3)C(=O)c1ccccc1C2=O`: the GI50 in the assay with CAKI-1 renal was 1.18 µM; in the assay on OVCAR-5 ovarian, 2.03 µM; in the assay on MDA-MB-231 breast, 1.27 µM; with SF-539 CNS, 1.69 µM; in the assay on 786-0 renal, 2.3 µM; in the assay on CCRF-CEM leukemia it was 2.39 µM. Besides, the GI50 in the assay on MDA-MB-435 is 0.194 µM; in the assay with NCI-H460 lung it was 1.94 µM; with SR leukemia, 1.78 µM; in the assay on RXF 393 renal, 1.35 µM. Besides, the TGI in the assay on CAKI-1 renal was 2.86 µM; with OVCAR-5 ovarian, 4.38 µM; with MDA-MB-231 breast, 6.68 µM; in the assay with SF-539 CNS, 3.12 µM; in the assay with 786-0 renal, 5.7 µM; in the assay on CCRF-CEM leukemia it was greater than 100 µM. Also, the TGI in the assay with MDA-MB-435 was 0.363 µM; in the assay on NCI-H460 lung, 3.97 µM; in the assay with SR leukemia, greater than 100 µM; with RXF 393 renal, 2.71 µM.
